Here are results for 10 compounds from ChEMBL document CHEMBL4619719, “A-ring and E-ring modifications of the cytotoxic alkaloid Luotonin A: Synthesis, computational and biological studies” (Bioorg Med Chem, 2020).

The source made the active and inactive calls. The rule behind the calls is not given here.

Test [1] deals with SW480. The experiment in a line: Antiproliferative activity against human SW480 cells assessed as reduction in cell viability at 20 uM measured after 72 hours by MTT assay relative to control. The class given is functional. A general note: Formazan colour is commonly taken as a measure of viable cells.
The test system of test [2] is HL-60. The experiment in a line: Antiproliferative activity against human HL60 cells assessed as reduction in cell viability at 20 uM measured after 72 hrs by MTT assay relative to control. The format is functional.
The subject of test [3] is SW480. Briefly: Antiproliferation activity against human SW480 cells assessed as reduction in cell viability measured after 72 hours by MTT assay. To be noted: SW480, 72 h. The class given is functional, cell-based.
Test [4] deals with HL-60. The experiment in a line: Antiproliferation activity against human HL60 cells assessed as reduction in cell viability measured after 72 hrs by MTT assay. The format is functional, cell-based. The following applies: HL-60, 72 h.
The test system of test [5] is SW480. Briefly: Induction of cell death in human SW480 cells assessed as accumulation of large nuclei at 2 uM incubated for 72 hrs by Hoechst […] staining based fluorescence microscopic method. The class given is functional.
Test [6] has as its target T1, DNA topoisomerase 1 (Homo sapiens) (UniProt P11387).
T1 sequence (whole entry): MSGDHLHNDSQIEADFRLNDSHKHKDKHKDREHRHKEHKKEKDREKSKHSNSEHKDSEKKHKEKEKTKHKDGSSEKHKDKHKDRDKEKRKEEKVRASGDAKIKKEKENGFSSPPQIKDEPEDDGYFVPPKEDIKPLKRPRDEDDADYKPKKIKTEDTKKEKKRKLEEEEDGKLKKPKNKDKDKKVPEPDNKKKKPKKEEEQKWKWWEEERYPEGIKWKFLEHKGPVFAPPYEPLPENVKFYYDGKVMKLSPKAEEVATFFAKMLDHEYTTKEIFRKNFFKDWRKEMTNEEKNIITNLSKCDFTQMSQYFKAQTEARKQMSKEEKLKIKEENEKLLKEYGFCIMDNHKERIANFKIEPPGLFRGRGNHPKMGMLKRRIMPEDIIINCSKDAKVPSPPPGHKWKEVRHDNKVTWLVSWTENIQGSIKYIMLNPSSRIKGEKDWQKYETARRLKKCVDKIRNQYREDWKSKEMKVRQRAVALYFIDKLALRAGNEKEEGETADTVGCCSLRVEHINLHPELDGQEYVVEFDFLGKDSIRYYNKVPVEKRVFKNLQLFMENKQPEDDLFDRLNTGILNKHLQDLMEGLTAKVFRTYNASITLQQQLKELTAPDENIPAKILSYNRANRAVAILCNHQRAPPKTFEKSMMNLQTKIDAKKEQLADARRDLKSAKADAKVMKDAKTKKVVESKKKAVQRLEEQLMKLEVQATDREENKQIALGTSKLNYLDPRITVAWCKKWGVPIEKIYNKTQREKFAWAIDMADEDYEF
Briefly: Inhibition of human TOP1 assessed as decrease in relaxation of supercoiled DNA using supercoiled plasmid DNA pGEM1 as substrate at 100 uM preincubated for 30 mins by SDS gel electrophoresis method. On the set-up: scale not given: the % may be the effect or the level left.

In test [7] the target is T1, DNA topoisomerase 1 (Homo sapiens). Briefly: Inhibition of human TOP1 assessed as decrease in relaxation of supercoiled DNA using supercoiled plasmid DNA pGEM1 as substrate at 10 uM preincubated for 30 mins by SDS gel electrophoresis method. On the set-up: scale not given: the % may be the effect or the level left.
Test [8] shares this target. Briefly: Inhibition of human TOP1 assessed as decrease in relaxation of supercoiled DNA using supercoiled plasmid DNA pGEM1 as substrate at 1 uM preincubated for 30 mins by SDS gel electrophoresis method. On the set-up: scale not given: the % may be the effect or the level left.
Test [9] concerns SW480. The experiment in a line: Induction of cell cycle arrest in human SW480 cells assessed as accumulation in G2/M phase at 2 to 4 uM for 72 hrs by propidium iodide staining based flow cytometric analysis. The format is functional.
The subject of test [10] is HL-60. Briefly: Induction of cell cycle arrest in human HL60 cells assessed as accumulation in G2/M phase at 2 to 4 uM 24 hrs by propidium iodide staining based flow cytometric analysis. The class given is functional. On the technique in general: In flow cytometry, cells or beads pass a laser one at a time.
Test [11] deals with SW480. Briefly: Induction of cell cycle arrest in human SW480 cells assessed as S phase cell cycle arrest at 2 to 4 uM incubated for 72 hrs by propidium iodide staining based flow cytometric analysis. The class given is functional.
Test [12] deals with HL-60. Briefly: Induction of apoptosis in human HL60 cels assessed as activation of caspases preincubated for 24 hrs followed by addition of fluorescent pan-caspase substrate incubated for 90 mins by fluorescence based assay. The class given is functional, cell-based.
The test system of test [13] is SW480. Briefly: Induction of apoptosis in human SW480 cells assessed as activation of caspases preincubated for 72 hrs followed by addition of fluorescent pan-caspase substrate incubated for 90 mins by fluorescence based assay. The format is functional, cell-based.
Test [14] relates to SW480. The experiment in a line: Induction of cell death in human SW480 cells assessed as accumulation of large cells at 2 uM incubated for 72 hrs by Hoechst […] staining based fluorescence microscopic method. The class given is functional.
For test [15], the system named is HL-60. Briefly: Induction of cell cycle arrest in human HL60 cells assessed as accumulation of cells at G2 phase incubated for 24 hrs by propidium iodide staining based flow cytometric analysis. The class given is functional.
The test system of test [16] is SW480. The experiment in a line: Induction of cell death in human SW480 cells assessed as accumulation of large nuclei incubated for 72 hrs by Hoechst […] staining based fluorescence microscopic method. The format is functional.
Test [17] concerns SW480. Briefly: Induction of cell death in human SW480 cells assessed as accumulation of large cells incubated for 72 hrs by Hoechst […] staining based fluorescence microscopic method. The format is functional.
Test [18] relates to HL-60. Briefly: Induction of cell cycle arrest in human HL60 cells assessed as accumulation of cells at G2 phase at 20 to 35 nM incubated for 24 hrs by propidium iodide staining based flow cytometric analysis. The class given is functional.
Test [19] relates to HL-60. Briefly: Induction of cell cycle arrest in human HL60 cells assessed as accumulation of cells at S phase at 20 to 35 nM incubated for 24 hrs by propidium iodide staining based flow cytometric analysis. The format is functional.
Test [20] relates to SW480. The experiment in a line: Induction of cell cycle arrest in human SW480 cells assessed as accumulation of cells at S phase at 20 to 35 nM incubated for 72 hrs by propidium iodide staining based flow cytometric analysis. The class given is functional.

On to `COc1cc(OC)c2cc3c(nc2c1)-c1nc2ccc(I)cc2c(=O)n1C3`, for which the “fold change (FC)” value in the test on SW480 [1] amounted to 0.99; in the test with HL-60 [2], 0.83.

Regarding `COc1cc(OC)c2cc3c(nc2c1)-c1nc2ccc(Br)cc2c(=O)n1C3`, in the test on SW480 [1], the “fold change (FC)” value came to 0.89. In the test on HL-60 [2], the “fold change (FC)” value is “inactive”.

`O=c1c2ccccc2nc2n1Cc1cc3cccc(F)c3nc1-2`: the “fold change (FC)” value with SW480 [1] is on record as 0.88; in the test on HL-60 [2] it was 0.61.

With `Nc1ccc2nc3c(cc2c1)Cn1c-3nc2ccccc2c1=O`, the figures for the “fold change (FC)” value in the test with SW480 [1] and with HL-60 [2] were 0.24 and 0.26, respectively.

For the compound `Nc1ccc2nc3n(c(=O)c2c1)Cc1cc2cccc(N)c2nc1-3`, the IC50 with SW480 [3] stood at 2030 nM; in the test on HL-60 [4], 820 nM. For the same compound, the outcome in the test with SW480 [5], with SW480 [9], in the test with HL-60 [10], with HL-60 [12] and with SW480 [14] was Active. For the same compound, the Activity in test [6] is 12.6 to 13%; in test [7] it was 9 to 9.2%; in [8] it was 2.6%. In addition, the outcome in the test with SW480 [11] and in the test with SW480 [13] was inactive. Also, the “fold change (FC)” value with SW480 [1] is 0.31; in the test with HL-60 [2] it was 0.01.

As for `Nc1cccc2cc3c(nc12)-c1nc2ccccc2c(=O)n1C3`, the “fold change (FC)” value is on record as 0.58 in the test with SW480 [1] and 0.02 in the test with HL-60 [2].

Turning to `COc1cc(OC)c2cc3c(nc2c1)-c1nc2ccc(N)cc2c(=O)n1C3`, the “fold change (FC)” value with SW480 [1] is 0.98; with HL-60 [2] it was 0.73.

Consider `CC[C@@]1(O)C(=O)OCc2c1cc1n(c2=O)Cc2cc3ccccc3nc2-1` [CAMPTOTHECIN], for which the IC50 is 210 nM in the test on SW480 [3] and 18 nM in the test with HL-60 [4]. The Activity in test [6] was 26.3%; in [7] it was 6%; in test [8], 2.1%; in the test on HL-60 [15], “Dose-dependent effect”. The “fold change (FC)” value in the test with SW480 [1] is reported as 0.3; in the test with HL-60 [2] it was 0. Besides, the outcome with SW480 [16], in the test on SW480 [17] and in the test on HL-60 [18] was inactive. The result in the test on HL-60 [19] and with SW480 [20] was Active.

`O=c1c2ccccc2nc2n1Cc1cc3ccccc3nc1-2` [LUOTONIN A]: the values for the Activity in test [6], in test [7] and in test [8] were 16.3%, 2.6% and 2.1%, respectively. For the same compound, the “fold change (FC)” value in the test with SW480 [1] is listed as 0.91; in the test with HL-60 [2], 0.83.

Take `COc1ccc2nc3c(cc2c1)Cn1c-3nc2ccc(Br)cc2c1=O`: the “fold change (FC)” value in the test on SW480 [1] is “inactive”. The “fold change (FC)” value in the test with HL-60 [2] was found to be 0.82.

The IC50 is the midpoint of a concentration-inhibition curve.
